What all share (assay type): physicochemical
The nature of series [1]: log P by HPLC on reversed-phase columns (C 18), method [a], acidic range pH 2.3. The settings on record: for chromatographic logP: pH 2.3, log P (pH 2.3). The protocol: The log P values were measured in accordance with EEC Directive 79/831 Annex V.A8 by HPLC (High Performance Liquid Chromatography) on reversed-phase columns (C 18) using the methods below: [a] The determination was carried out in the acidic range at pH 2.3 using the mobile phases 0.1% aqueous phosphoric acid and acetronitrile linear gradient from 10% acetonitrile to 95% acetronitrile.

The nature of a further series: physchem. To be noted: pH 7.8. The protocol: The log P values were measured in accordance with EEC Directive 79/831 Annex V.A8 by HPLC (High Performance Liquid Chromatography) on reversed-phase columns (C 18) using the methods below: [c] The LC-MS determination in the neutral range was carried out at pH 7.8 using the mobile phases 0.001 molar aqueous ammonium bicarbonate solution and acetonitrile linear gradient from 10% acetonitrile to 95% acetonitrile.

The nature of series [2]: log P by LC-MS, method [b], acid range pH 2.7. The settings on record: pH 2.7. How it is done: The log P values were measured in accordance with EEC Directive 79/831 Annex V.A8 by HPLC (High Performance Liquid Chromatography) on reversed-phase columns (C 18) using the methods below:
[b] The LC-MS determination in the acid range was carried out at pH 2.7 using the mobile phases 0.1% aqueous formic acid and acetonitrile (contains 0.1% formic acid)
linear gradient from 10% acetonitrile to 95% acetonitrile.

As to `O=C1CCCN1c1cccc(Nc2ncc(Cl)c(NCC(F)(F)F)n2)c1` [Example 10], the values for the log p (in series [1] (pH 2.3); in “physchem”) were 2.08[a]; and 2.42[c], respectively.
For `O=C1CCCN1c1cc(Nc2ncc(Cl)c(NCC(F)F)n2)ccc1F` [Example 51] the same measures were 1.72[a]; and 2.15[c].
Taken in the same sequence, the figures for `O=C1OCCN1c1ccc(Nc2ncc(Cl)c(NC3COC3)n2)cc1` [Example 17] were 0.26[a]; and 0.76[c].
Taken in the same sequence, the figures for `C=CCNc1nc(Nc2ccc(N3CCOC3=O)cc2)ncc1Cl` [Example 15] were 1.25[a]; and 2.25[c].
Consider `O=C1CCCN1c1ccc(Nc2ncc(Cl)c(NC3COC3)n2)cc1` [Example 18], for which the log p was 0.41[a]; in series [1] (pH 2.3) and 0.9[c] in “physchem”.
Taken in the same sequence, the figures for `CC1CCN(Cc2cccc(Nc3ncc(Cl)c(NC4CC4)n3)c2)C1=O` (stereo not shown) [Example 234] were 1.7[a]; and 2.57[c].
Regarding `CSCC(C)(C)Nc1nc(Nc2cccc(N3CCCC3=O)c2)ncc1Cl` [Example 41], the log p in series [1] (pH 2.3) was 2.17[a];; in “physchem” it was 3.26[c].
Take `O=C1C[C@@H](O)CN1c1cccc(Nc2ncc(Cl)c(NC3CC3)n2)c1` [Example 108]: the values for the log p (in series [1] (pH 2.3); in the series “physchem”) were 0.98[a]; and 1.68[c], respectively.
As to `CC(C)OC(=O)N(c1cccc(N2CCCC2=O)c1)c1ncc(Cl)c(NC2CC2)n1` [Example 329, Isopropyl [5-chloro-4-(cyclopropylamino)pyrimidin-2-yl][3-(2-oxopyrrolidin-1-yl)phenyl]carbamate], the chromatographic logP (in general, lipophilicity estimated from chromatographic retention) in series [1] was found to be 2.24; in series [2], 2.24; in the series “physchem”, 2.55.
In the case of `CC1(C)CC1Nc1nc(Nc2cccc(N3CCCC3=O)c2)ncc1Cl` (stereo not shown) [Example 127], the log p was 1.98[a]; in series [1] (pH 2.3), 1.98[b] in series [2] and 2.99[c]; in the series “physchem”.
Taken in the same sequence, the figures for `CC1(C)CC(=O)N(c2cccc(Nc3ncc(Cl)c(NC4CC4(C)C)n3)c2)C1=O` (stereo not shown) [Example 122] were 2.42[a];, 2.42[b] and 3.28[c];.
Consider `COCC(C)Nc1nc(Nc2cccc(N3CCCC3=O)c2)ncc1C(F)(F)F` (stereo not shown) [Example 6], for which the figures for the log p (in series [1] (pH 2.3); in the series “physchem”) were 2.4[a]; and 2.79[c], respectively.
With `O=C1OCCN1c1ccc(Nc2ncc(I)c(NC3CC3)n2)cc1` [Example 11], the log p is 1.41[a]; in series [1] (pH 2.3) and 2.48[c] in “physchem”.
In the case of `CC(=O)N(c1cccc(N2CCCC2=O)c1)c1ncc(Cl)c(NCC2CC2)n1` [Example 184], the “log P (pH 2.3)” value in series [1] (pH 2.3) is on record as 2.35. Further, the log p in series [2] was 2.35[b]; in the series “physchem” it was 2.38[c];.
For the compound `COC1=CC(=O)N(c2cccc(Nc3ncc(Br)c(NC4CC4)n3)c2)C1` [Example 238], the log p in series [1] (pH 2.3) is 1.77[a];; in “physchem”, 2.65[c].
Regarding `CC1CC(=O)N(c2cccc(Nc3ncc(Cl)c(NC4CC4(C)C)n3)c2)C1=O` (stereo not shown) [Example 121], the log p in series [1] (pH 2.3) was 2.13[a];; in series [2], 2.13[b]; in “physchem” it was 2.92[c];.
In the case of `CCOC(=O)N(c1cccc(N2CCCC2=O)c1)c1ncc(Cl)c(NC2CC2)n1` [Example 330, Ethyl [5-chloro-4-(cyclopropylamino)pyrimidin-2-yl][3-(2-oxopyrrolidin-1-yl)phenyl]-carbamate], the results for the chromatographic logP (in series [1]; in series [2]; in the series “physchem”) were 2.04, 2.04 and 2.24, respectively.
For `CNc1nc(Nc2ccc(N3CCOC3=O)cc2)ncc1Cl` [Example 61], the results for the log p (in series [1] (pH 2.3); in “physchem”) were 0.73[a]; and 1.82[c], respectively.
With `O=C1CCC(CO)N1c1cccc(Nc2ncc(Br)c(NC3CC3)n2)c1` (stereo not shown) [Example 79], the log p in series [1] (pH 2.3) was 1.04[a];; in “physchem”, 1.65[c].
For `C=CCNc1nc(Nc2ccc(N3CCCC3=O)cc2)ncc1Cl` [Example 13] the same measures were 1.38[a]; and 2.29[c].
Turning to `O=C1CCCN1c1cccc(Nc2ncc(F)c(NC3CCC3)n2)c1` [Example 43], the log p is 1.31[a]; in series [1] (pH 2.3) and 2.32[c] in “physchem”.
`CC1COC(=O)N1c1cccc(Nc2ncc(Cl)c(NC3CC3(C)C)n2)c1` (stereo not shown) [Example 120]: the log p in series [1] (pH 2.3) was 2.15[a];; in series [2] it was 2.15[b]; in “physchem” it was 3.12[c];.
Turning to `CC(C)Nc1nc(Nc2cccc(N3CCCC3=O)c2)ncc1Cl` [Example 22], the values for the log p (in series [1] (pH 2.3); in the series “physchem”) were 1.52[a]; and 2.64[c], respectively.
`COC1=CC(=O)N(c2cccc(Nc3ncc(Cl)c(NC4CC4)n3)c2)C1` [Example 237]: the log p in series [1] (pH 2.3) was 1.55[a];; in “physchem”, 2.45[c].
Taken in the same sequence, the figures for `O=C1CCCN1c1cccc(Nc2ncc(Cl)c(NCC(F)F)n2)c1` [Example 44] were 1.64[a]; and 2.19[c].
With `CC1CCN(Cc2cccc(Nc3ncc(Cl)c(N(C)C4CC4)n3)c2)C1=O` (stereo not shown) [Example 233], the log p in series [1] (pH 2.3) was 2.5[a];; in the series “physchem” it was 3.25[c].
With `CN(c1nc(Nc2cccc(N3C(=O)CCC3CO)c2)ncc1Cl)C1CC1` (stereo not shown) [Example 82], the log p in series [1] (pH 2.3) is 1.54[a];; in the series “physchem”, 2.06[c].
Regarding `O=C1CCC(CO)N1c1cccc(Nc2ncc(Cl)c(NC3CC3)n2)c1` (stereo not shown) [Example 136], the log p is 0.96[a]; in series [1] (pH 2.3) and 1.6[c] in “physchem”.
With `Cc1ccc(Nc2ncc(C(F)(F)F)c(NC3CC3)n2)cc1N1CCCC1=O` [Example 316], the log p in series [2] was 2.16[b]; in the series “physchem”, 2.62[c];.
With `C=CCNc1nc(Nc2cccc(N3CCCC3=O)c2)ncc1Cl` [Example 14], the log p is 1.45[a]; in series [1] (pH 2.3) and 2.37[c] in “physchem”.
For `O=C1CCCN1c1cc(Nc2ncc(Cl)c(NC3CC3)n2)ccc1OC(F)(F)F` [Example 20] the same measures were 2.34[a]; and 2.91[c].
Turning to `O=C1CCCN1c1cccc(Nc2ncc(Cl)c(N3CCCCC3)n2)c1` [Example 225], the figures for the log p (in series [2]; in the series “physchem”) were 2.57[b] and 3.53[c];, respectively.
In the case of `O=C1CCCN1c1ccc(Nc2ncc(Cl)c(NCC(F)(F)F)n2)cc1` [Example 9], the log p in series [1] (pH 2.3) is 1.96[a];; in the series “physchem” it was 2.34[c].
As for `CC(C)N(C)c1nc(Nc2cccc(N3CCCC3=O)c2)ncc1Cl` [Example 77], the figures for the log p (in series [1] (pH 2.3); in the series “physchem”) were 2.1[a]; and 3.18[c], respectively.
Consider `CC1CC1Nc1nc(Nc2cccc(N3C(=O)OC[C@H]3C(C)C)c2)ncc1Cl` (stereo partly shown) [Example 216], for which the log p in series [2] was 2.43[b]; in the series “physchem”, 3.46[c];.
As to `CC1CN(c2cccc(Nc3ncc(Cl)c(NC4CCC4)n3)c2)C(=O)O1` (stereo not shown) [Example 312], the log p in series [2] was 1.91[b]; in the series “physchem”, 3.02[c];.
For `CC(C)Nc1nc(Nc2ccc(N3CCCC3=O)cc2)ncc1Cl` [Example 21], the log p in series [1] (pH 2.3) is 1.44[a];; in “physchem”, 2.56[c].
For `O=C1C(O)CCN1c1cccc(Nc2ncc(Cl)c(NC3CC3)n2)c1` (stereo not shown) [Example 78] the same measures were 1.14[a]; and 1.84[c].
On to `CNc1nc(Nc2ccc(F)c(N3CCCC3=O)c2)ncc1Cl` [Example 199], for which the values for the log p (in series [2]; in “physchem”) were 1.28[b] and 1.91[c];, respectively.

These data come from patent publication US20110245242A1, “Heterocyclically Substituted Anilinopyrimides” (Bayer CropScience AG, priority 2008, published 2011).
